The target of this assay is T1, MDM2 (Homo sapiens, UniProt Q00987).
T1 construct: made in house
Put plainly: Inhibition test of MDM2-P53 (GST-MDM2, Biotin-P53, Anti-GST-Tb, SA-XL665). In kind it is binding. The procedure, abridged: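 Binding was measured by TR-FRET with GST-MDM2 at 4 nM final in PBS with 0.1% BSA, 5 mM DTT and 1 mM AEBSF. Compounds were tested as twelve-point 5-fold dilutions and incubated with the detection mix for 90 min at 25 °C with shaking before plate-reader reading and curve fitting.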

Here are results for 24 molecules from patent US11339171B2, “MDM2 inhibitors” (Gan & Lee Pharmaceuticals, priority 2017, dated 2022).

T1 sequence (Q00987 whole entry): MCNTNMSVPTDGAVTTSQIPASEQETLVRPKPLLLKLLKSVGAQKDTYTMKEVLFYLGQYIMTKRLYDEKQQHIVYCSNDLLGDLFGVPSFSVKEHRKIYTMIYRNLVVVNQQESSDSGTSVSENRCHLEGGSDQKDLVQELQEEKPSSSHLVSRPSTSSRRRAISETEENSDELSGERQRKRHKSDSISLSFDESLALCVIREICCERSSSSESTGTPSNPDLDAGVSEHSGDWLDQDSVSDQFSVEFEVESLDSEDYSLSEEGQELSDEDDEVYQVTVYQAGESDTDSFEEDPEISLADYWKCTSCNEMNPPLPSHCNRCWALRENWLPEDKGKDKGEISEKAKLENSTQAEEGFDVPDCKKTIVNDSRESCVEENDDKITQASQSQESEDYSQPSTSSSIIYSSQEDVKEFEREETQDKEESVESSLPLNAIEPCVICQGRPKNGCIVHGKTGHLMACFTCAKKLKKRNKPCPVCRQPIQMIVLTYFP

Take `COc1cc(N)ccc1-c1nc2c(n1C(C)C)[C@]1(C(=O)Nc3cc(Cl)ccc31)N(c1ccc(F)c(Cl)c1)C2=O` [Example R-73, (R)-2′-(4-amino-2-methoxyphenyl)-6-chloro-5′-(3-chloro-4-fluorophenyl)-3′-isopropyl-3′H-spiro[dihydroindole-3,4′-pyrrolo[3,4-d]imidazole]-2,6′(5′H)-dione]: the concentration for half-maximal inhibition (IC50) is 0.142 µM. As for `COc1c(F)cccc1-c1nc2c(n1C(C)C)[C@]1(C(=O)Nc3cc(Cl)ccc31)N(c1cc(Cl)ccc1C)C2=O` [Example R-76, (R)-6-chloro-5′-(5-chloro-2-methylphenyl)-2′-(3-fluoro-2-methoxyphenyl)-3′-isopropyl-3′H-spiro[dihydroindole-3,4′-pyrrolo[3,4-d]imidazole]-2,6′(5′H)-dione], the figure is 0.579 µM; as for `COc1cc(C(N)=O)ccc1-c1nc2c(n1C(C)C)[C@]1(C(=O)Nc3cc(Cl)ccc31)N(c1cc(Cl)ccc1C)C2=O` [Example R-77, (R)-4-(6-chloro-5′-(5-chloro-2-methylphenyl)-3′-isopropyl-2,6′-dioxo-5′,6′-dihydro-3′H-spiro[dihydroindole-3,4′-pyrrolo[3,4-d]imidazole]-2′-yl)-3-methoxybenzamide], 0.139 µM. The figure for `COc1cccc(OC)c1-c1nc2c(n1C(C)C)[C@]1(C(=O)Nc3cc(Cl)ccc31)N(c1cc(Cl)ccc1C)C2=O` [Example R-79, (R)-6-chloro-5′-(5-chloro-2-methylphenyl)-2′-(2,6-dimethoxyphenyl)-3′-isopropyl-3′H-spiro[dihydroindole-3,4′-pyrrolo[3,4-d]imidazole]-2,6′(5′H)-dione] is 0.285 µM. `COc1ccc(-c2nc3c(n2C(C)C)[C@]2(C(=O)Nc4cc(Cl)ccc42)N(c2cc(Cl)ccc2F)C3=O)c(OC)c1` [Example R-80, (R)-6-chloro-5′-(5-chloro-2-fluorophenyl)-2′-(2,4-dimethoxyphenyl)-3′-isopropyl-3′H-spiro[dihydroindole-3,4′-pyrrolo[3,4-d]imidazole]-2,6′(5′H)-dione] registered an IC50 of 0.363 µM. As for `COc1nc(N(C)C)ncc1-c1nc2c(n1C(C)C)[C@]1(C(=O)Nc3cc(Cl)ccc31)N(c1cc(Cl)ccc1C)C2=O` [Example R-82, (R)-6-chloro-5′-(5-chloro-2-methylphenyl)-2′-(2-(dimethylamino)-4-methoxypyrimidin-5-yl)-3′-isopropyl-3′H-spiro[dihydroindole-3,4′-pyrrolo[3,4-d]imidazole]-2,6′(5′H)-dione], the figure is 0.394 µM. As for `COc1cc(C2CC2)ccc1-c1nc2c(n1C(C)C)[C@]1(C(=O)Nc3cc(Cl)ccc31)N(c1cc(Cl)ccc1C)C2=O` [Example R-86, (R)-6-chloro-5′-(5-chloro-2-methylphenyl)-2′-(4-cyclopropyl-2-methoxyphenyl)-3′-isopropyl-3′H-spiro[dihydroindole-3,4′-pyrrolo[3,4-d]imidazole]-2,6′(5′H)-dione], the figure is 0.142 µM; as for `CCOc1ccc(-c2nc3c(n2C(C)C)[C@]2(C(=O)Nc4cc(Cl)ccc42)N(c2cc(Cl)ccc2C)C3=O)c(OC)c1` [Example R-88, (R)-6-chloro-5′-(5-chloro-2-methylphenyl)-2′-(4-ethoxy-2-methoxyphenyl)-3′-isopropyl-3′H-spiro[dihydroindole-3,4′-pyrrolo[3,4-d]imidazole]-2,6′(5′H)-dione], 0.399 µM; as for `COc1cc(C(C)C)ccc1-c1nc2c(n1C(C)C)[C@]1(C(=O)Nc3cc(Cl)ccc31)N(c1cc(Cl)cnc1C)C2=O` [Example R-89, (R)-6-chloro-5′-(5-chloro-2-methylpyridin-3-yl)-3′-isopropyl-2′-(4-isopropyl-2-methoxyphenyl)-3′H-spiro[dihydroindole-3,4′-pyrrolo[3,4-d]imidazole]-2,6′(5′H)-dione], 0.569 µM. The figure for `COc1nc(N)ncc1-c1nc2c(n1C(C)C)[C@]1(C(=O)Nc3cc(Cl)ccc31)N(c1cc(Cl)ccc1C)C2=O` [Example R-90, (R)-2′-(2-amino-4-methoxypyrimidin-5-yl)-6-chloro-5′-(5-chloro-2-methylphenyl)-3′-isopropyl-3′H-spiro[dihydroindole-3,4′-pyrrolo[3,4-d]imidazole]-2,6′(5′H)-dione] is 0.31 µM. `COc1cc(C(C)C)ccc1-c1nc2c(n1C(C)C)[C@]1(C(=O)Nc3cc(Cl)ccc31)N(c1cccc(Cl)c1)C2=O` [Example R-93, (R)-6-chloro-5′-(3-chlorophenyl)-3′-isopropyl-2′-(4-isopropyl-2-methoxyphenyl)-3′H-spiro[dihydroindole-3,4′-pyrrolo[3,4-d]imidazole]-2,6′(5′H)-dione] yielded a half-maximal inhibitory concentration (IC50) of 0.658 µM. Compared with the last molecule, the IC50 is about 2.1-fold higher.

For the molecule `CCOc1ccc(-c2nc3c(n2C(C)C)[C@]2(C(=O)Nc4cc(Cl)ccc42)N(c2cc(Cl)ccc2F)C3=O)c(OC)c1` [Example R-94, (R)-6-chloro-5′-(5-chloro-2-fluorophenyl)-2′-(4-ethoxy-2-methoxyphenyl)-3′-isopropyl-3′H-spiro[dihydroindole-3,4′-pyrrolo[3,4-d]imidazole]-2,6′(5′H)-dione], half-maximal inhibition (IC50) required 0.84 µM. The IC50 values of the last two molecules are within 1.5-fold of each other. The figure for `COc1cc(OC(C)C)ncc1-c1nc2c(n1C(C)C)[C@]1(C(=O)Nc3cc(Cl)ccc31)N(c1cccc(Cl)c1)C2=O` [Example R-95, (R)-6-chloro-5′-(3-chlorophenyl)-2′-(6-isopropoxy-4-methoxypyridin-3-yl)-3′-isopropyl-3′H-spiro[dihydroindole-3,4′-pyrrolo[3,4-d]imidazole]-2,6′(5′H)-dione] is 1.67 µM. The figure for `CCOc1cc(OC)c(-c2nc3c(n2C(C)C)[C@]2(C(=O)Nc4cc(Cl)ccc42)N(c2cc(Cl)cnc2C)C3=O)cn1` [Example R-96, (R)-6-chloro-5′-(5-chloro-2-methylpyridin-3-yl)-2′-(6-ethoxy-4-methoxypyridin-3-yl)-3′-isopropyl-3′H-spiro[dihydroindole-3,4′-pyrrolo[3,4-d]imidazole]-2,6′(5′H)-dione] is 0.151 µM.

`CCOc1cc(OC)c(-c2nc3c(n2C(C)C)[C@]2(C(=O)Nc4cc(Cl)ccc42)N(c2cc(Cl)ccc2F)C3=O)cn1` [Example R-98, (R)-6-chloro-5′-(5-chloro-2-fluorophenyl)-2′-(6-ethoxy-4-methoxypyridin-3-yl)-3′-isopropyl-3′H-spiro[dihydroindole-3,4′-pyrrolo[3,4-d]imidazole]-2,6′(5′H)-dione]: half-maximal inhibition (IC50) required 1.03 µM.

As to `CCOc1ccc(-c2nc3c(n2C(C)C)[C@]2(C(=O)Nc4cc(Cl)ccc42)N(c2cccc(Cl)c2)C3=O)c(OC)c1` [Example R-100, (R)-6-chloro-5′-(3-chlorophenyl)-2′-(4-ethoxy-2-methoxyphenyl)-3′-isopropyl-3′H-spiro[dihydroindole-3,4′-pyrrolo[3,4-d]imidazole]-2,6′(5′H)-dione], the half-maximal inhibitory concentration (IC50) amounted to 0.633 µM. Compared with the last molecule, the IC50 is about 1.6-fold lower. Consider `COc1cc(C(C)(C)C)ccc1-c1nc2c(n1C(C)C)[C@]1(C(=O)Nc3cc(Cl)ccc31)N(c1cc(Cl)ccc1C)C2=O` [Example R-101, (R)-2′-(4-(tert-butyl)-2-methoxyphenyl)-6-chloro-5′-(5-chloro-2-methylphenyl)-3′-isopropyl-3′H-spiro[dihydroindole-3,4′-pyrrolo[3,4-d]imidazole]-2,6′(5′H)-dione], for which the IC50 came out at 2 µM. The figure for `CCOc1cc(OC)c(-c2nc3c(n2C(C)C)[C@]2(C(=O)Nc4cc(Cl)ccc42)N(c2cccc(Cl)c2)C3=O)cn1` [Example R-102, (R)-6-chloro-5′-(3-chlorophenyl)-2′-(6-ethoxy-4-methoxypyridin-3-yl)-3′-isopropyl-3′H-spiro[dihydroindole-3,4′-pyrrolo[3,4-d]imidazole]-2,6′(5′H)-dione] is 0.413 µM; for `CCN(CC)c1ccc(-c2nc3c(n2C(C)C)[C@]2(C(=O)Nc4cc(Cl)ccc42)N(c2cc(Cl)ccc2C)C3=O)c(OC)c1` [Example R-105, (R)-6-chloro-5′-(5-chloro-2-methylphenyl)-2′-(4-(diethylamino)-2-methoxyphenyl)-3′-isopropyl-3′H-spiro[dihydroindole-3,4′-pyrrolo[3,4-d]imidazole]-2,6′(5′H)-dione] it is 0.343 µM; for `COc1cc(C2CC2)ncc1-c1nc2c(n1C(C)C)[C@]1(C(=O)Nc3cc(Cl)ccc31)N(c1cccc(Cl)c1)C2=O` [Example R-106, (R)-6-chloro-5′-(3-chlorophenyl)-2′-(6-cyclopropyl-4-methoxypyridin-3-yl)-3′-isopropyl-3′H-spiro[dihydroindole-3,4′-pyrrolo[3,4-d]imidazole]-2,6′(5′H)-dione] it is 0.481 µM. As for `COc1cc(C2CC2)cc(OC)c1-c1nc2c(n1C(C)C)[C@]1(C(=O)Nc3cc(Cl)ccc31)N(c1cc(Cl)ccc1C)C2=O` [Example R-108, (R)-6-chloro-5′-(5-chloro-2-methylphenyl)-2′-(4-cyclopropyl-2,6-dimethoxyphenyl)-3′-isopropyl-3′H-spiro[dihydroindole-3,4′-pyrrolo[3,4-d]imidazole]-2,6′(5′H)-dione], the figure is 0.691 µM; as for `COc1cc(OC2CC2)ncc1-c1nc2c(n1C(C)C)[C@]1(C(=O)Nc3cc(Cl)ccc31)N(c1cc(Cl)ccc1C)C2=O` [Example R-110, (R)-6-chloro-5′-(5-chloro-2-methylphenyl)-2′-(6-cyclopropoxy-4-methoxypyridin-3-yl)-3′-isopropyl-3′H-spiro[dihydroindole-3,4′-pyrrolo[3,4-d]imidazole]-2,6′(5′H)-dione], 0.704 µM.

In turn, `COc1nc(N(C)C)ncc1-c1nc2c(n1C(C)C)[C@]1(C(=O)Nc3cc(Cl)ccc31)N(c1cccc(Cl)c1)C2=O` [Example R-112, (R)-6-chloro-5′-(3-chlorophenyl)-2′-(2-(dimethylamino)-4-methoxypyrimidin-5-yl)-3′-isopropyl-3′H-spiro[dihydroindole-3,4′-pyrrolo[3,4-d]imidazole]-2,6′(5′H)-dione] had a concentration for half-maximal inhibition (IC50) of 0.104 µM. This IC50 is about 6.8-fold lower than that of the molecule before. As for `COc1cc(C2CC2)ccc1-c1nc2c(n1C(C)C)[C@]1(C(=O)Nc3cc(Cl)ccc31)N(c1cccc(Cl)c1)C2=O` [Example R-116, (R)-6-chloro-5′-(3-chlorophenyl)-2′-(4-cyclopropyl-2-methoxyphenyl)-3′-isopropyl-3′H-spiro[dihydroindole-3,4′-pyrrolo[3,4-d]imidazole]-2,6′(5′H)-dione], the figure is 0.689 µM.

For orientation: IC50 means the concentration needed to halve the response being measured. High values mean weaker potency, low ones greater potency.
